According to ChEMBL document CHEMBL3600285, “Inhibitory Effects of Highly Oxygenated Lanostane Derivatives from the Fungus Ganoderma lucidum on P-Glycoprotein and α-Glucosidase” (J Nat Prod, 2015):

What was measured:
Alpha-glucosidase MAL12 = Alpha-glucosidase MAL12 (Saccharomyces cerevisiae S288c, UniProt P53341); test: Inhibition of yeast alpha-glucosidase using p-NPG as substrate
[1] = target: ATP-dependent translocase ABCB1 (Homo sapiens, UniProt P08183); test: Inhibition of p-glycoprotein in human adriamycin-resistant MCF7 cells assessed as increase of adriamycin accumulation at 20 uM after 1 hr by LC-MS/MS analysis relative to control; type: cell-based; conditions: mcf7, 1 h
Chain of ATP-dependent translocase ABCB1 (P08183 whole entry): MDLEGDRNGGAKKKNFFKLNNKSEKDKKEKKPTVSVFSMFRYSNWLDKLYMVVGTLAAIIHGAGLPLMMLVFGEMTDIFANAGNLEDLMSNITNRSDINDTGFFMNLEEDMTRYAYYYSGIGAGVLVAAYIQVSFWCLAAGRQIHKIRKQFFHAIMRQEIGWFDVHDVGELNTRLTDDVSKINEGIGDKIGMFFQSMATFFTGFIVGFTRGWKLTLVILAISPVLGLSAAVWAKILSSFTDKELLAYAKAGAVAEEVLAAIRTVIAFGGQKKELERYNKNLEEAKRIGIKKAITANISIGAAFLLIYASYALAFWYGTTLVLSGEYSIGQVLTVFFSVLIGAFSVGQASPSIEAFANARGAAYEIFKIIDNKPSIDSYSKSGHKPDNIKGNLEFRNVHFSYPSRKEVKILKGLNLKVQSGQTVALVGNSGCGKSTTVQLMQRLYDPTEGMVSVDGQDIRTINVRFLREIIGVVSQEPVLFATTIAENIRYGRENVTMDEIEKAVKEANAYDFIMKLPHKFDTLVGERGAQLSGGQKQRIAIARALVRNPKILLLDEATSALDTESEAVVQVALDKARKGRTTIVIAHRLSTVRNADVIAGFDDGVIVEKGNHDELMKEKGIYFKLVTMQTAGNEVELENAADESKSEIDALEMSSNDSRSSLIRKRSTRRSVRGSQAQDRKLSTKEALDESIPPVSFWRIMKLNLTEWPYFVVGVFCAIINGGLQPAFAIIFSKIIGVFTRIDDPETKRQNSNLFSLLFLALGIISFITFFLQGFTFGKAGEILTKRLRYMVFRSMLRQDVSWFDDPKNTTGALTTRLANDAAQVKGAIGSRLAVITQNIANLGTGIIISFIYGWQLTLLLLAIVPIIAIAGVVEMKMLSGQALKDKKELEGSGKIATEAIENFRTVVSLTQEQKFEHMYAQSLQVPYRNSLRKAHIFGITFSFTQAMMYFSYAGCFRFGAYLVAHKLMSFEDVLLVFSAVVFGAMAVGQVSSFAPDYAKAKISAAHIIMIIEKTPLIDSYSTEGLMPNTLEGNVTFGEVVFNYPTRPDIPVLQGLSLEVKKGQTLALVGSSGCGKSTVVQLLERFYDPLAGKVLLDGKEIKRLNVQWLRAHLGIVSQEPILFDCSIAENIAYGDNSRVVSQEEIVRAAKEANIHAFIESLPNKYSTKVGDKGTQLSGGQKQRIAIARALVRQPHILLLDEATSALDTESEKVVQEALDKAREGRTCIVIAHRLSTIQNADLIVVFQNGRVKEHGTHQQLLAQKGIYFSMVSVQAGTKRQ

Chain of Alpha-glucosidase MAL12 (P53341 whole entry): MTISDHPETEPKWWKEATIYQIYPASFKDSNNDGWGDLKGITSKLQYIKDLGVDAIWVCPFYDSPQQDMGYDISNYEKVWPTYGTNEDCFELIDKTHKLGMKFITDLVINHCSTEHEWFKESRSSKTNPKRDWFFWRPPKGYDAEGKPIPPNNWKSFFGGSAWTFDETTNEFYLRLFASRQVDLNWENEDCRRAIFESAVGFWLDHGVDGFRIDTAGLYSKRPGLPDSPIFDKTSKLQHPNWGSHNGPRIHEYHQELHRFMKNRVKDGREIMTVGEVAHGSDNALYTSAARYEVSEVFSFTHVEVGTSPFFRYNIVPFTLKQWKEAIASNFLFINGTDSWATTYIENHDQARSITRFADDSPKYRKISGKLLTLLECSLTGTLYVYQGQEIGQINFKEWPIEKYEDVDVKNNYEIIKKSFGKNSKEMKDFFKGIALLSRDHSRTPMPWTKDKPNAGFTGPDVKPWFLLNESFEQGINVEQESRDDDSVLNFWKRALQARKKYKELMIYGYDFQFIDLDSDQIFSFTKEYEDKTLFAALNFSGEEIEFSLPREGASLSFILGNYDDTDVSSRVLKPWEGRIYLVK

SMILES: CC1(C)[C@@H](O)CC[C@]2(C)C3=C([C@@H](O)C[C@@H]12)[C@]1(C)C(=O)C[C@H]([C@]2(C)CCC(=O)O2)[C@@]1(C)C(=O)C3=O
- IC50 (Alpha-glucosidase MAL12): 91.3 µM
- Ratio [1]: 3

SMILES: C[C@H](C(=O)O)[C@H]1CC(=O)[C@@]2(C)C3=C(C(=O)C[C@]12C)[C@@]1(C)CCC(=O)C(C)(C)[C@@H]1CC3=O
- IC50 (Alpha-glucosidase MAL12): 145 µM

SMILES: CC1(C)[C@@H](O)CC[C@]2(C)C3=C([C@@H](O)C[C@@H]12)[C@]1(C)C(=O)C[C@H]([C@]2(C)CCC(=O)O2)[C@@]1(C)[C@H](O)C3=O
- IC50 (Alpha-glucosidase MAL12): 41.7 µM

SMILES: COC(=O)CC[C@@H](C)[C@H]1CC(=O)[C@@]2(C)C3=C(C(=O)C[C@]12C)[C@@]1(C)CCC(=O)C(C)(C)[C@@H]1CC3=O [METHYL LUCIDENATE F]
- Ratio [1]: 3

SMILES: C/C(=C\CC[C@@H](C)[C@H]1CC[C@@]2(C)C3=C([C@@H](O)C[C@]12C)[C@@]1(C)CCC(=O)C(C)(C)[C@@H]1CC3=O)C(=O)O
- IC50 (Alpha-glucosidase MAL12): 119 µM
- Ratio [1]: 3

SMILES: CC1(C)C(=O)CC[C@]2(C)C3=C(C(=O)C[C@@H]12)[C@]1(C)C(=O)C[C@H]([C@]2(C)CCC(=O)O2)[C@@]1(C)CC3=O
- IC50 (Alpha-glucosidase MAL12): 81.8 µM

SMILES: CC1(C)C(=O)CC[C@]2(C)C3=C([C@@H](O)C[C@@H]12)[C@]1(C)C(=O)C[C@H]([C@]2(C)CCC(=O)O2)[C@@]1(C)[C@@H](O)C3=O
- Ratio [1]: 3

SMILES: COc1ccc(CCN(C)CCCC(C#N)(c2ccc(OC)c(OC)c2)C(C)C)cc1OC (stereo not given)
- Ratio [1]: 3
